Laboratory results reported in paper PMC7982526, “Discovery of New α-Glucosidase Inhibitors: Structure-Based Virtual Screening and Biological Evaluation” (Frontiers in Chemistry, 2021).

Key:
[1] = Cell viability assay (MTT); assay type: cell-based; conditions: human, LO2 cells (normal hepatocyte cell line), 48 h treatment, read-out: IC50 toward LO2 cells (cytotoxicity)
Experimental: The LO2 cell line was cultured in a proper medium supplemented with 10% fetal bovine serum in a humidified atmosphere of 5% CO2 at 37°C. Cell suspensions were plated in 96-well plates at a density of 2 × 10^4 […]. Compounds were solubilized in DMSO at six different concentrations. After incubation for 24 h, the cells were treated with various concentrations of tested substances for 48 h and then incubated with 100 μL of MTT at 37°C for 2 h. The formazan dye product was measured by the absorbance at 490 nm on a Tecan Spark multimode microplate reader (Switzerland).

[2] = target: T1, α-glucosidase (Saccharomyces cerevisiae, UniProt P53341); assay: Kinetic assay, Lineweaver-Burk plot analysis; assay type: biochemical; conditions: for inhibition type: Lineweaver-Burk plot analysis; for Ki: Lineweaver-Burk plot, substrate pNPG, secondary plot of slopes, read-out: estimated Ki
T1 construct: purchased Sigma-Aldrich G5003
T1 sequence (P53341 whole entry): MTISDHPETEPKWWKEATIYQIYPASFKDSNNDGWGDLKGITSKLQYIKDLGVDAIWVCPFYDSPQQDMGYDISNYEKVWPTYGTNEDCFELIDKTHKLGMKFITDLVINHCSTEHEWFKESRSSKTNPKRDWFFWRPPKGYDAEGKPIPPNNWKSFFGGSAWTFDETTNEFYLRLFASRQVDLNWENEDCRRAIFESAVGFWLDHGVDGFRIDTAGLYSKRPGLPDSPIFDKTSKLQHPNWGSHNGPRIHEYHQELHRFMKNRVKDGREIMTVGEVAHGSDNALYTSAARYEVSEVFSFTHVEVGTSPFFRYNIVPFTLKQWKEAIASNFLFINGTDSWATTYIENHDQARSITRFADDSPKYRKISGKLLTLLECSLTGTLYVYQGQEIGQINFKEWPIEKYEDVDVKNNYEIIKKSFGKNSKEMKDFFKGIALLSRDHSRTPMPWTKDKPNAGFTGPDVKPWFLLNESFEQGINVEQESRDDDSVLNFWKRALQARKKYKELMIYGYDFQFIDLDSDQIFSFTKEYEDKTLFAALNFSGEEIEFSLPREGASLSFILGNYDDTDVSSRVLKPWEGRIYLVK
Experimental: The inhibition type of the inhibitors against α-glucosidase activities was evaluated based on a described method ([Hou et al., 2009]). Increasing concentrations of substrates pNPG were used in the absence or presence of tested compounds at four different concentrations around the IC50 values. The inhibitory kinetics of the investigated compounds on α-glucosidase was analyzed using the Lineweaver–Burk plot of the substrate concentration and velocity.

[3] = target: T1, α-glucosidase; assay: Fluorescence quenching experiment; assay type: binding, baker's yeast; conditions: increasing concentration of compound, 30 min, 37°C, excitation 290 nm
Experimental: According to the previously reported method ([Aguilar-Moncayo et al., 2010]), all fluorescence spectra were measured on a fluorescence spectrophotometer (Agilent Cary Eclipse) equipped with a 10.0-mm quartz cell and a thermostat bath. In the fluorescence spectrophotometer, α-glucosidase (1 U/ml) was pretreated with certain concentrations of inhibitors for 30 min at 37°C. 100 μL of the above solution (pH 6.8) was added accurately to the quartz cell. The blank was used for buffer spectrum values. The fluorescence emission spectra were measured at 37°C. The excitation wavelength was 290 nm, and the emission spectrum was recorded from 320 to 500 nm.

[4] = target: T2, α-Glucosidase (Sigma, G5003) derived from baker's yeast (Saccharomyces cerevisiae, UniProt P53341); assay: biochemical; assay type: biochemical; conditions: for inhibition ratio against α-glycosidase: at 100 μM; for IC50: mean ± SD of three independent experiments, six concentrations, 37°C, pH 6.8, read-out: IC50 against α-glycosidase
T2 construct: purchased Sigma-Aldrich G5003
T2 sequence (P53341 whole entry): as above
Experimental: The α-glucosidase inhibitory evaluation of the purchased 52 compounds was performed according to the previously described protocol ([Tang et al., 2014]; [Ye et al., 2019]). α-Glucosidase (Sigma, G5003) derived from baker’s yeast, and pNPG (Sigma, N1377) and the substrate were both purchased from Sigma-Aldrich. […] The compounds and α-glucosidase were preincubated in phosphate buffer (37°C, 15 min). Then, 25 μL substrate buffer was added to the system to start the reaction, and the incubation was continued at 37°C for 15 min. Finally, the reaction was terminated by the addition of 50 μL 0.2 M reaction termination solution. The optical density (OD) was measured at an absorbance wavelength of 405 nm using a microplate reader (Tecan, Switzerland). The IC50 values were estimated with six different concentrations, and each sample was measured three times in parallel experiments.

| SMILES | IC50 at 48 h [1] [µM] | inhibition type [2] | Ki [2] [µM] | fluorescence quenching of α-glycosidase [3] | inhibition ratio against α-glycosidase [4] | IC50 [4] [µM] |
| --- | --- | --- | --- | --- | --- | --- |
| Cc1cccc(-c2cc3ncn(CC(=O)NC(=O)Nc4ccccc4)c(=O)c3s2)c1 [compound 7] | > 100 | noncompetitive | 24.2 | gradually quenched in a type of concentration-dependent manner | above 50% | 17.4 ± 1.32 |
| CSc1nc(N)nc(SCC(=O)c2ccc3c(c2)OCO3)c1C#N [compound 22] | > 100 | noncompetitive | 11.3 | gradually quenched in a type of concentration-dependent manner | above 50% | 35.2 ± 2.14 |
| O=C(Nc1ccccc1C(=O)NCc1ccco1)c1ccc(F)cc1 [compound 37] | > 100 | noncompetitive | 11.3 | gradually quenched in a type of concentration-dependent manner | above 50% | 31.3 ± 3.11 |
| COc1ccc(-c2c(C#N)c(SCc3nc4ccccc4[nH]3)nc(C)c2C(C)=O)cc1 [compound 44] | > 100 | noncompetitive | 15.4 | gradually quenched in a type of concentration-dependent manner | above 50% | 9.99 ± 0.43 |
